Patent US20240270762A1, “PENICILLIN-BINDING PROTEIN INHIBITORS” (priority 2021, published 2024)
Converted amounts (≈) assume the structure as drawn. Read-outs that look alike come from different tables or passages of the source.

How the values were obtained:
N. gonorrhoeae CDC-0197 = assay: Liquid broth MIC in Fastidious broth; conditions: Neisseria gonorrhoeae
P. aeruginosa ATCC 35151 = assay: microbe, parasite or virus in culture; type: cell-based; conditions: Pseudomonas aeruginosa, ATCC35151, read-out: Minimum inhibitory concentration, P. aeruginosa ATCC 35151
A. baumannii CDC-0083 = assay: microbe, parasite or virus in culture; type: cell-based; conditions: Acinetobacter baumannii, CDC0083, read-out: MIC, A. baumannii CDC-0083
[1] = tested on: B. thailandensis ATCC 700388; assay: microbe, parasite or virus in culture; type: cell-based; conditions: Burkholderia thailandensis, ATCC700388, read-out: Minimum inhibitory concentration (MIC), B. thailandensis ATCC 700388
N. gonorrhoeae MS11 = assay: Liquid broth MIC in Fastidious broth; conditions: Neisseria gonorrhoeae
P. aeruginosa CDC-0054 = assay: microbe, parasite or virus in culture; type: cell-based; conditions: Pseudomonas aeruginosa, CDC0054, read-out: Minimum inhibitory concentration, P. aeruginosa CDC-0054
[2] = tested on: B. humptydooensis ATCC BAA-2767; assay: microbe, parasite or virus in culture; type: cell-based; conditions: Burkholderia humptydooensis, ATCCBAA2767, read-out: Minimum inhibitory concentration (MIC), B. humptydooensis ATCC BAA-2767
P. aeruginosa ATCC 27853 = assay: microbe, parasite or virus in culture; type: cell-based; conditions: Pseudomonas aeruginosa, ATCC27853, read-out: Minimum inhibitory concentration, P. aeruginosa ATCC 27853
A. baumannii ATCC 19606 = assay: microbe, parasite or virus in culture; type: cell-based; conditions: Acinetobacter baumannii, ATCC19606, read-out: MIC, A. baumannii ATCC 19606
P. aeruginosa CDC-0110 = assay: microbe, parasite or virus in culture; type: cell-based; conditions: Pseudomonas aeruginosa, CDC0110, read-out: Minimum inhibitory concentration, P. aeruginosa CDC-0110
A. baumannii CDC-0045 = assay: microbe, parasite or virus in culture; type: cell-based; conditions: Acinetobacter baumannii, CDC0045, read-out: MIC, A. baumannii CDC-0045
[3] = tested on: P. aeruginosa (ΔmexAB-oprM); assay: Broth microdilution MIC in iron-depleted CAMHB (IDM); type: cell-based; conditions: Pseudomonas aeruginosa; iron-depleted CAMHB (IDM); […]; read-out: Minimum inhibitory concentration, P. aeruginosa ΔmexAB-oprM
[4] = CDC0197, read-out: Minimum Inhibitory Concentration (MIC), N. gonorrhoeae CDC-0197
[5] = MS11, read-out: Minimum Inhibitory Concentration (MIC), N. gonorrhoeae MS11
[6] = CDC0197, read-out: Minimum Inhibitory Concentration, CDC-0197
[7] = MS11, read-out: Minimum Inhibitory Concentration, MS11

SMILES	MIC (N. gonorrhoeae CDC-0197; [4]) [mg/L]	MIC (P. aeruginosa ATCC 35151) [mg/L]	MIC (A. baumannii CDC-0083) [mg/L]	MIC [1] [mg/L]	MIC (N. gonorrhoeae MS11; [5]) [mg/L]	MIC (P. aeruginosa CDC-0054) [mg/L]	MIC [2] [mg/L]	MIC (P. aeruginosa ATCC 27853) [mg/L]	MIC (A. baumannii ATCC 19606) [mg/L]	MIC (P. aeruginosa CDC-0110) [mg/L]	MIC (A. baumannii CDC-0045) [mg/L]	MIC [3] [mg/L]	MIC (N. gonorrhoeae CDC-0197; [6]) [mg/L]	MIC (N. gonorrhoeae MS11; [7]) [mg/L]
O=C(CN1CCN(C(=O)N[C@@H](C(=O)N[C@H]2Cc3ccc(F)c(C(=O)O)c3OB2O)c2cc(F)c(O)c(O)c2Cl)C(=O)C1=O)NCc1nccs1 [Example 241, (R)-3-((R)-2-(2-chloro-5-fluoro-3,4-dihydroxyphenyl)-2-(2,3-dioxo-4-(2-oxo-2-((thiazol-2-ylmethyl)amino)ethyl)piperazine-1-carboxamido)acetamido)-7-fluoro-2-hydroxy-3,4-dihydro-2H-benzo[e][1,2]oxaborinine-8-carboxylic acid]	16 to 32 (≈ 21.7 to 43.4 µM)	< 1	> 128	2 to 4 (≈ 2.71 to 5.43 µM)	16 to 32 (≈ 21.7 to 43.4 µM)	< 1	2 to 4 (≈ 2.71 to 5.43 µM)	< 1	< 1	< 1	2 to 4 (≈ 2.71 to 5.43 µM)	< 1	–	–
O=C(NCCS(=O)(=O)N1CCN(C(=O)N[C@@H](C(=O)N[C@H]2Cc3ccc(F)c(C(=O)O)c3OB2O)c2cc(F)c(O)c(O)c2Cl)C1=O)Nc1cccnc1 [Example 267, (R)-3-((R)-2-(2-chloro-5-fluoro-3,4-dihydroxyphenyl)-2-(2-oxo-3-((2-(3-(pyridin-3-yl)ureido)ethyl)sulfonyl)imidazolidine-1-carboxamido)acetamido)-7-fluoro-2-hydroxy-3,4-dihydro-2H-benzo[e][1,2]oxaborinine-8-carboxylic acid]	–	< 1	< 1	2 to 4 (≈ 2.56 to 5.12 µM)	–	2 to 4 (≈ 2.56 to 5.12 µM)	2 to 4 (≈ 2.56 to 5.12 µM)	2 to 4 (≈ 2.56 to 5.12 µM)	< 1	2 to 4 (≈ 2.56 to 5.12 µM)	< 1	< 1	16 to 32 (≈ 20.5 to 40.9 µM)	16 to 32 (≈ 20.5 to 40.9 µM)
O=C(NCCS(=O)(=O)N1CCN(C(=O)N[C@H](C(=O)N[C@H]2Cc3ccc(F)c(C(=O)O)c3OB2O)c2cc(F)c(O)c(O)c2Cl)C1=O)c1nccs1 [Example 263, (R)-3-((S)-2-(2-chloro-5-fluoro-3,4-dihydroxyphenyl)-2-(2-oxo-3-((2-(thiazole-2-carboxamido)ethyl)sulfonyl)imidazolidine-1-carboxamido)acetamido)-7-fluoro-2-hydroxy-3,4-dihydro-2H-benzo[e][1,2]oxaborinine-8-carboxylic acid]	–	2 to 4 (≈ 2.59 to 5.18 µM)	2 to 4 (≈ 2.59 to 5.18 µM)	8 to 16 (≈ 10.4 to 20.7 µM)	–	8 to 16 (≈ 10.4 to 20.7 µM)	8 to 16 (≈ 10.4 to 20.7 µM)	32 to 64 (≈ 41.4 to 82.8 µM)	8 to 16 (≈ 10.4 to 20.7 µM)	> 128	32 to 64 (≈ 41.4 to 82.8 µM)	8 to 16 (≈ 10.4 to 20.7 µM)	> 64	> 64
O=C(NCCCS(=O)(=O)N1CCN(C(=O)N[C@H](C(=O)N[C@H]2Cc3ccc(F)c(C(=O)O)c3OB2O)c2cc(F)c(O)c(O)c2Cl)C1=O)c1cccc(O)c1 [Example 270, (R)-3-((S)-2-(2-chloro-5-fluoro-3,4-dihydroxyphenyl)-2-(3-((3-(3-hydroxybenzamido)propyl)sulfonyl)-2-oxoimidazolidine-1-carboxamido)acetamido)-7-fluoro-2-hydroxy-3,4-dihydro-2H-benzo[e][1,2]oxaborinine-8-carboxylic acid]	–	< 1	2 to 4 (≈ 2.51 to 5.03 µM)	> 128	–	> 128	> 128	32 to 64 (≈ 40.2 to 80.4 µM)	2 to 4 (≈ 2.51 to 5.03 µM)	> 128	8 to 16 (≈ 10.1 to 20.1 µM)	< 1	> 64	> 64
O=C(CN1CCN(C(=O)NC(C(=O)N[C@H]2Cc3ccc(F)c(C(=O)O)c3OB2O)c2cc(F)c(O)c(O)c2Cl)C(=O)C1=O)NCc1cccc(O)c1 (stereo partly drawn) [Example 237, (3R)-3-(2-(2-chloro-5-fluoro-3,4-dihydroxyphenyl)-2-(4-(2-((3-hydroxybenzyl)amino)-2-oxoethyl)-2,3-dioxopiperazine-1-carboxamido)acetamido)-7-fluoro-2-hydroxy-3,4-dihydro-2H-benzo[e][1,2]oxaborinine-8-carboxylic acid]	16 to 32 (≈ 21.5 to 42.9 µM)	< 1	> 128	8 to 16 (≈ 10.7 to 21.5 µM)	16 to 32 (≈ 21.5 to 42.9 µM)	8 to 16 (≈ 10.7 to 21.5 µM)	2 to 4 (≈ 2.68 to 5.36 µM)	2 to 4 (≈ 2.68 to 5.36 µM)	< 1	< 1	8 to 16 (≈ 10.7 to 21.5 µM)	< 1	–	–
O=C(NCCN1CCN(C(=O)NC(C(=O)N[C@H]2Cc3ccc(F)c(C(=O)O)c3OB2O)c2cc(F)c(O)c(O)c2Cl)C1=O)c1cccnc1 (stereo partly drawn) [Example 246, (3R)-3-(2-(2-chloro-5-fluoro-3,4-dihydroxyphenyl)-2-(3-(2-(nicotinamido)ethyl)-2-oxoimidazolidine-1-carboxamido)acetamido)-7-fluoro-2-hydroxy-3,4-dihydro-2H-benzo[e][1,2]oxaborinine-8-carboxylic acid]	–	< 1	< 1	2 to 4 (≈ 2.85 to 5.69 µM)	–	2 to 4 (≈ 2.85 to 5.69 µM)	2 to 4 (≈ 2.85 to 5.69 µM)	2 to 4 (≈ 2.85 to 5.69 µM)	< 1	< 1	< 1	< 1	> 64	16 to 32 (≈ 22.8 to 45.5 µM)
O=C(O)c1c(F)ccc2c1OB(O)[C@@H](NC(=O)C(NC(=O)N1CCN(CCNC(=O)[C@@H]3CCCN3)C1=O)c1cc(F)c(O)c(O)c1Cl)C2 (stereo partly drawn) [Example 248, (3R)-3-(2-(2-chloro-5-fluoro-3,4-dihydroxyphenyl)-2-(2-oxo-3-(2-((S)-pyrrolidine-2-carboxamido)ethyl)imidazolidine-1-carboxamido)acetamido)-7-fluoro-2-hydroxy-3,4-dihydro-2H-benzo[e][1,2]oxaborinine-8-carboxylic acid]	–	< 1	< 1	2 to 4 (≈ 2.88 to 5.76 µM)	–	2 to 4 (≈ 2.88 to 5.76 µM)	< 1	2 to 4 (≈ 2.88 to 5.76 µM)	< 1	< 1	< 1	< 1	16 to 32 (≈ 23 to 46.1 µM)	16 to 32 (≈ 23 to 46.1 µM)
O=C(CN1CCN(C(=O)NC(C(=O)N[C@H]2Cc3ccc(F)c(C(=O)O)c3OB2O)c2cc(F)c(O)c(O)c2Cl)C(=O)C1=O)Nc1cccnc1 (stereo partly drawn) [Example 234, (3R)-3-(2-(2-chloro-5-fluoro-3,4-dihydroxyphenyl)-2-(2,3-dioxo-4-(2-oxo-2-(pyridin-3-ylamino)ethyl)piperazine-1-carboxamido)acetamido)-7-fluoro-2-hydroxy-3,4-dihydro-2H-benzo[e][1,2]oxaborinine-8-carboxylic acid]	16 to 32 (≈ 22.3 to 44.6 µM)	< 1	< 1	8 to 16 (≈ 11.2 to 22.3 µM)	16 to 32 (≈ 22.3 to 44.6 µM)	2 to 4 (≈ 2.79 to 5.58 µM)	< 1	2 to 4 (≈ 2.79 to 5.58 µM)	< 1	< 1	< 1	< 1	–	–
O=C(CN1CCN(C(=O)NC(C(=O)N[C@H]2Cc3ccc(F)c(C(=O)O)c3OB2O)c2cc(F)c(O)c(O)c2Cl)C(=O)C1=O)NCc1cccnc1 (stereo partly drawn) [Example 240, (3R)-3-(2-(2-chloro-5-fluoro-3,4-dihydroxyphenyl)-2-(2,3-dioxo-4-(2-oxo-2-((pyridin-3-ylmethyl)amino)ethyl)piperazine-1-carboxamido)acetamido)-7-fluoro-2-hydroxy-3,4-dihydro-2H-benzo[e][1,2]oxaborinine-8-carboxylic acid]	16 to 32 (≈ 21.9 to 43.8 µM)	< 1	> 128	2 to 4 (≈ 2.74 to 5.47 µM)	16 to 32 (≈ 21.9 to 43.8 µM)	< 1	2 to 4 (≈ 2.74 to 5.47 µM)	< 1	< 1	< 1	2 to 4 (≈ 2.74 to 5.47 µM)	< 1	–	–
O=C(NCCN1CCN(C(=O)NC(C(=O)N[C@H]2Cc3ccc(F)c(C(=O)O)c3OB2O)c2cc(F)c(O)c(O)c2Cl)C(=O)C1=O)c1cccc(O)c1 (stereo partly drawn) [Example 215, (3R)-3-(2-(2-chloro-5-fluoro-3,4-dihydroxyphenyl)-2-(4-(2-(3-hydroxybenzamido)ethyl)-2,3-dioxopiperazine-1-carboxamido)acetamido)-7-fluoro-2-hydroxy-3,4-dihydro-2H-benzo[e][1,2]oxaborinine-8-carboxylic acid]	16 to 32 (≈ 21.5 to 42.9 µM)	< 1	> 128	8 to 16 (≈ 10.7 to 21.5 µM)	16 to 32 (≈ 21.5 to 42.9 µM)	8 to 16 (≈ 10.7 to 21.5 µM)	< 1	2 to 4 (≈ 2.68 to 5.36 µM)	< 1	< 1	8 to 16 (≈ 10.7 to 21.5 µM)	< 1	–	–
